Test results taken from PMC7756582, “Prodrugs of γ‐Alkyl‐Modified Nucleoside Triphosphates: Improved Inhibition of HIV Reverse Transcriptase” (Angewandte Chemie (International Ed. in English), 2020).

Target: T1, human DNA polymerase α (Homo sapiens, UniProt P09884)
T1 construct: purchased Chimerx
T1 sequence (P09884 1-1462): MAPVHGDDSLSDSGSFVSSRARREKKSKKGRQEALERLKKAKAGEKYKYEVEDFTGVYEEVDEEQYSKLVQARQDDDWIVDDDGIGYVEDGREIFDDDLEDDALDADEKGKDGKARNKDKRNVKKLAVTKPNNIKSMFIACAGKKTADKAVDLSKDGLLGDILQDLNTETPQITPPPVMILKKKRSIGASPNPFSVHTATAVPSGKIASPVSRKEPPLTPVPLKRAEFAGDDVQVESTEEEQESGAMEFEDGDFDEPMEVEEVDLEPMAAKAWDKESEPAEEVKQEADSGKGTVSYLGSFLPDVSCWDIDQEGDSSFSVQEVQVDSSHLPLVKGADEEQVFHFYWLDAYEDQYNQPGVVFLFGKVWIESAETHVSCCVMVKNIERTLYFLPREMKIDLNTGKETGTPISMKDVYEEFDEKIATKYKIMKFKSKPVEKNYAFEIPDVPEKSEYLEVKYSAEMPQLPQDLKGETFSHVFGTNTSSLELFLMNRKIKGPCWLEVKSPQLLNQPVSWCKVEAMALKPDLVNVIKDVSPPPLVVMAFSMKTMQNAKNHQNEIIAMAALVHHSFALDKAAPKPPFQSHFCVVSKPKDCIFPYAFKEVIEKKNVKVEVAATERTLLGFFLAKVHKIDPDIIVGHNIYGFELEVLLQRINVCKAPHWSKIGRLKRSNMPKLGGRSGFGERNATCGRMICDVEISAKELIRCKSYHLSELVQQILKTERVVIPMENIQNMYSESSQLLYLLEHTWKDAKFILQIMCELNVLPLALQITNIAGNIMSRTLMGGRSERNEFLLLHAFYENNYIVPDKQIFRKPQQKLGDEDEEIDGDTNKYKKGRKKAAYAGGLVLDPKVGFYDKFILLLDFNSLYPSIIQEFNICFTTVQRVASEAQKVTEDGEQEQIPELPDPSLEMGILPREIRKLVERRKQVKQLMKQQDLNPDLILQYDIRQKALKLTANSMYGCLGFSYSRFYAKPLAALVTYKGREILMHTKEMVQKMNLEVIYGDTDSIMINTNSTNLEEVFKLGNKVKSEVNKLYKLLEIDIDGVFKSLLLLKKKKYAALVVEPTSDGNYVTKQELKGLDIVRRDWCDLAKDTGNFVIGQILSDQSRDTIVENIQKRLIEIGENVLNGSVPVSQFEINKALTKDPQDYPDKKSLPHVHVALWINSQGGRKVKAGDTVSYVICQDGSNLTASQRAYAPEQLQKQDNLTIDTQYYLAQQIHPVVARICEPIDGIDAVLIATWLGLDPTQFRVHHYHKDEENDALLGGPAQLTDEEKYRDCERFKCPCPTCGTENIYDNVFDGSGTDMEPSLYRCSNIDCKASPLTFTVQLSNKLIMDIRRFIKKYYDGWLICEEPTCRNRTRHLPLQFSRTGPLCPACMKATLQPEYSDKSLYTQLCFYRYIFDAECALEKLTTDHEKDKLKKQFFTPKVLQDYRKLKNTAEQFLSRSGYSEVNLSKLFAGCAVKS
Test: Primer extension assay with human DNA polymerase α
Type: biochemical
Conditions: dNTPs 250 μM, Pol α 4 U, 60 min
Protocol: Two different set‐ups have been used. First, a mixture of dATP, dCTP, dGTP, and γ‐alkyl‐TTP (N*) or ‐d4TTP (T*) was used as a mixture. The results obtained from these experiments were compared to those in which just γ‐alkyl‐TTP (N) or d4TTP (T) was used. In each experiment a primer extension without added polymerase (negative control, ‐ lane) and an experiment in which all four canonical NTPs were added (positive control, +lane) were used as controls.
Anti-HIV activity assay: Inhibition of HIV-1(IIIB)- and HIV-2(ROD)-induced cytopathicity in wild-type CEM/0 and thymidine kinase-deficient CEM/TK- cell cultures was measured in microtiter 96-well plates containing ~3·105 CEM cells/mL infected with 100 CCID50 of HIV per milliliter and containing appropriate dilutions of the test compounds. After 4−5 days of incubation at 37 °C in a CO2-controlled humidified atmosphere, CEM giant (syncytium) cell formation was examined microscopically. The EC50 (50% effective concentration) was defined as the compound concentration required to inhibit HIV-induced giant cell formation by 50%. […]
2) For HIV- RT assay: The final assay solution (10 µL) consists of 50 mM Tris-HCl (pH 8.6 at 22 °C), 10 mM MgCl2, 40mM KCl, dNTPs 66 µM, HIV RT 6 U, Hybrid 0.32 µM in a reaction volume of 10 µL, incubated 37 °C for 15 min, 80 °C for 3 min; 50 mA, 45w for 4 h. […] The result was visualized by fluorescence imaging. […]

Compound: Cc1cn(C2C=CC(COP(=O)(O)OP(=O)(O)OP(=O)(O)O)O2)c(=O)[nH]c1=O (stereo not shown) [2 t, d4TTP, reference compound]
- primer extension by DNA polymerase α (substrate properties): substrate
